# Assays:
# [1] = Water Solubility Assay (measured in pH 7.8 buffer); assay type: physicochemical; conditions: pH 7.8;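 also: precipitation onset detected as rise in absorbance at 650 nm across increasing concentrations, after shaking for 18 h, blank wells receiving DMSO only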
# [2] = target: Human recombinant cyclophilin A (Cyp A) (Homo sapiens, UniProt P62937);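 also: cis to trans isomerization of SUC-AAPF-pNA by 2 nM enzyme, read as absorbance at 330 nm over 300 s at 10 °C, catalytic rate corrected for uncatalyzed background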
# Calcineurin = Calcineurin (Homo sapiens, UniProt P62937+P63098+Q08209)
# Chain of Calcineurin (P63098 whole entry, other chains not shown): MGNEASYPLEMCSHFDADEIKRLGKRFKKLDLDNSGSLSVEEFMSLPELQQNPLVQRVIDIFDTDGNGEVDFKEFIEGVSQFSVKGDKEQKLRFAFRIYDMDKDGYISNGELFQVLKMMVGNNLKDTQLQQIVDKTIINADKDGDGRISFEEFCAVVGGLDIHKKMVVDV
# Chain of Calcineurin (P62937 whole entry, other chains not shown): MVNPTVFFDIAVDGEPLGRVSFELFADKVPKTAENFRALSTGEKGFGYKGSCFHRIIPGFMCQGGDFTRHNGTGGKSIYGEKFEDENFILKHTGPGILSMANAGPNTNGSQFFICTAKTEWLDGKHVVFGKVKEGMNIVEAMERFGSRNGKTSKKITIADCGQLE
# Chain of Human recombinant cyclophilin A (Cyp A) (P62937 whole entry): as the sequence (P62937 whole entry, other chains not shown) above
SMILES,Water Solubility Assay [1],Ki [2],immunosuppressive potential (Calcineurin)
"CC[C@H]1NC(=O)[C@@H]([C@H](O)[C@H](C)CCN2CC(F)(F)C2)N(C)C(=O)[C@@H](C(C)C)N(C)C(=O)[C@@H](CC(C)C)N(C)C(=O)[C@@H](CC(C)C)N(C)C(=O)[C@H](C)NC(=O)[C@@H](C)NC(=O)[C@@H](CC(C)C)N(C)C(=O)[C@@H](C(C)C)NC(=O)[C@H](CC(C)C)N(C)C(=O)[C@@H](C)N(C)C1=O [Compound EM, [(3R,4R,5S)-(3,3-Difluoro-azetidin-1-yl)-4-hydroxy-3-methyl-5-(methylamino)-1-hexanoic acid]^1[(R)-methyl-Sar]^3 cyclosporin A]",75 to 100 µM,9.5 nM,more immunosuppressive potential than others
"CCC1NC(=O)C(C(O)C(C)CCN(CCC(F)(F)F)CCC(F)(F)F)N(C)C(=O)C(C(C)C)N(C)C(=O)C(CC(C)C)N(C)C(=O)C(CC(C)C)N(C)C(=O)C(C)NC(=O)C(C)NC(=O)C(CC(C)C)N(C)C(=O)C(C(C)C)NC(=O)C(CC(C)C)N(C)C(=O)C(C)N(C)C1=O [Compound EQ, (3R,4R,5S)-1-[Bis-(3,3,3-trifluoro-propyl)-amino]-[(4-Hydroxy-3-methyl-5-(methylamino)-hexanoic acid]^1[(R)-methyl-Sar]^3 cyclosporin A]",25 to 50 µM,4.6 nM,more immunosuppressive potential than others

# Reference: US20160039880A1 (priority 2012, published 2016)
